Measured values taken from US20260224462A1, “ANTI-AGING COMPOSITION” (MITSUBISHI CORPORATION LIFE SCIENCES LIMITED, priority 2023, published 2026).

What was measured:
Format in all cases: cell-based
Normal human fibroblasts [1] = assay: Suppression of decrease in proliferation capability of aging-induced normal human fibroblasts (MTT assay); settings: 50 μM or 100 μM, aging induced with 0.5 mM hydrogen peroxide; compared with only aging induction and with 100 μM reduced glutathione; p<0.005; FIG. 1
Method: Normal human fibroblasts were seeded in 96 well plates (3.0×10^3 cells/well, N=3) and precultured for 24 hours (5% CO2, 37° C.). As a medium, MEM-α, nucleosides medium (Gibco) containing fetal bovine serum (10% of serum-free medium was externally added) was used. Thereafter, the wells were washed once with PBS (−), then replaced with MEM-α, nucleoside medium containing fetal bovine serum (5% of serum-free medium was externally added) dissolved so that the final concentration of Sample 1 or Sample 2 was 50 μM or 100 μM, and further incubated for 30 minutes. Thereafter, fibroblasts were treated with a medium adjusted so that the final concentration of hydrogen peroxide was 0.5 mM to induce aging. Thereafter, an MTT assay was performed according to a conventional method, and the survival rate of fibroblasts was calculated as a relative value when the survival rate of cells in the test section in which neither treatment nor aging induction was performed was taken as 100.
For comparison, a test section in which only aging induction was performed and a test section in which reduced glutathione was 100 μM was set instead of Sample 1. […]

[2] = tested on: Normal human epidermal keratinocytes; assay: Suppression of decrease in proliferation capability of aging-induced normal human epidermal keratinocytes (MTT assay); settings: 50 μM or 100 μM, aging induced with 0.5 mM hydrogen peroxide; compared with only aging induction; FIG. 2
Method: Normal human epidermal keratinocytes were seeded in 96 well plates (1.0×10^4 cells/well, N=3) and precultured for 24 hours (5% CO2, 37° C.). As a medium, a commercially available keratinocyte growth medium (PromoCell) was used. Thereafter, the wells were washed once with PBS (−), then replaced with a keratinocyte growth medium dissolved so that the final concentration of Sample 1 was 50 μM or 100 μM, and further incubated for 30 minutes. […] Thereafter, an MTT assay was performed according to a conventional method, and the survival rate of normal human epidermal keratinocytes was calculated as a relative value when the survival rate of cells in a test section in which neither the treatment with oxidized glutathione trisulfide nor the aging induction was performed was taken as 100. For comparison, a test section in which only aging induction was performed without treatment with oxidized glutathione trisulfide was set. Regarding the survival rate, a significant difference test (t-test, two-tailed) between the two groups of the test section of Sample 1 and the test section in which only aging induction was performed was performed respectively.

Normal human fibroblasts [3] = assay: Suppression of decrease in hyaluronic acid production capability due to aging induction, fibroblasts (ELISA); settings: 50 μM or 100 μM, 0.5 mM hydrogen peroxide; for amount of hyaluronic acid compared with test section of only aging induction: 24 h, ELISA, p<0.05, FIG. 3; for hyaluronic acid production capability compared with test sections that did not induce aging: no significant difference between the two groups, FIG. 3
Method: Normal human fibroblasts were seeded in 24 well plates (8.0×10^4 cells/well, N=3) and precultured for 24 hours (5% CO2, 37° C.). As a medium, MEM-α, nucleosides medium (Gibco) containing fetal bovine serum (10% of serum-free medium was externally added) was used. Thereafter, the wells were washed once with PBS (−), then replaced with MEM-α, nucleoside medium containing fetal bovine serum (5% of serum-free medium was externally added) dissolved so that the final concentration of Sample 1 or Sample 2 was 50 μM or 100 μM, and further incubated for 30 minutes. Thereafter, fibroblasts were treated with a medium adjusted so that the final concentration of hydrogen peroxide was 0.5 mM to induce aging. Thereafter, the culture medium was changed to MEM-α, nucleoside medium containing fetal bovine serum (5% of serum-free culture medium was externally added) and incubated for 24 hours, and then the amount of hyaluronic acid was quantified by ELISA using a hyaluronic acid quantification kit (Cosmo Bio Inc.).
The hyaluronic acid production amount in each test section was shown as a relative value when the hyaluronic acid production amount in each sample and the test section in which aging induction was not performed was taken as 100. Regarding the hyaluronic acid production amount, a significant difference test (t-test, two-tailed) between the two groups of the test section for Sample 1 and the test section for which only the aging induction was performed respectively, and a significant difference test between the test section for Sample 2 and the test section for which only the aging induction was performed were each performed, and “*(p<0.05)” was marked for those in which a significant difference was recognized.

[4] = tested on: Normal human epidermal keratinocytes; assay: Suppression of decrease in hyaluronic acid production capability due to aging induction, keratinocytes (ELISA); settings: 50 μM, 0.5 mM hydrogen peroxide
Method: Normal human epidermal keratinocytes were seeded in 24 well plates (1.0×10^5 cells/well, N=3) and precultured for 24 hours (5% CO2, 37° C.). As a medium, a commercially available keratinocyte growth medium (PromoCell) was used. Thereafter, the wells were washed once with PBS (−), then replaced with a keratinocyte growth medium dissolved so that the final concentration of Sample 1 was 50 μM, and further incubated for 30 minutes. Thereafter, normal human epidermal keratinocytes were treated with a medium adjusted to have a final concentration of hydrogen peroxide of 0.5 mM to induce aging. Thereafter, the medium was replaced with a new keratinocyte growth medium and incubated for 24 hours, and then the amount of hyaluronic acid was quantified by an ELISA method using a hyaluronic acid quantification kit (Cosmo Bio). For comparison, a test section not treated with oxidized glutathione trisulfide was provided.
The hyaluronic acid production amount in each of the test sections was shown as a relative value when the hyaluronic acid production amount in the test section in which neither oxidized glutathione trisulfide treatment nor aging induction was performed was taken as 100. […]

B16 mouse melanoma cells = assay: Melanin production suppression test in cultured cells; settings: FIG. 5; for melanin production amount compared with the reference sample (absorbance at 405 nm): 0.02 mM or 0.05 mM at melanin induction with α-MSH 200 nM, p<0.01; for concentration needed for melanin production suppressing effect compared with kojic acid (1 mM) and reduced glutathione (3 mM): 0.02 mM or 0.05 mM of sample
Method: B16 mouse melanoma cells were seeded in a 6 well plate (2.0×10^4 cells/well), and cultured for 24 hours in D-MEM medium to which 5% fetal bovine serum was added with respect to the medium (5% CO2, 37° C.). […] The obtained pellets were washed twice with PBS (−), 150 μL of a 1 M sodium hydroxide solution was then added, and the mixture was treated at 100° C. for 10 minutes to dissolve the pellets, thereby preparing a reference sample. […] One hundred μL of a sample of each test section was added to a 96 well plate, and the absorbance at 405 nm was measured with a microplate reader (n=3). […] The significant difference test was performed on the measured value of the reference sample by the Dunnett method (*p<0.05, **p<0.01.).

[5] = biological target: T1, tyrosinase derived from B16 mouse melanoma cells (Mus musculus, UniProt P11344); assay: Tyrosinase activity suppression test; settings: 0.05 mM or 0.1 mM at melanin induction; L-DOPA, absorbance at 490 nm corrected by protein concentration; FIG. 6
T1 construct: a protein extract containing tyrosinase derived from B16 mouse melanoma cells; endogenous in cells; host or cells: B16 mouse melanoma cells, alpha-MSH induced
T1 sequence (P11344 19-533): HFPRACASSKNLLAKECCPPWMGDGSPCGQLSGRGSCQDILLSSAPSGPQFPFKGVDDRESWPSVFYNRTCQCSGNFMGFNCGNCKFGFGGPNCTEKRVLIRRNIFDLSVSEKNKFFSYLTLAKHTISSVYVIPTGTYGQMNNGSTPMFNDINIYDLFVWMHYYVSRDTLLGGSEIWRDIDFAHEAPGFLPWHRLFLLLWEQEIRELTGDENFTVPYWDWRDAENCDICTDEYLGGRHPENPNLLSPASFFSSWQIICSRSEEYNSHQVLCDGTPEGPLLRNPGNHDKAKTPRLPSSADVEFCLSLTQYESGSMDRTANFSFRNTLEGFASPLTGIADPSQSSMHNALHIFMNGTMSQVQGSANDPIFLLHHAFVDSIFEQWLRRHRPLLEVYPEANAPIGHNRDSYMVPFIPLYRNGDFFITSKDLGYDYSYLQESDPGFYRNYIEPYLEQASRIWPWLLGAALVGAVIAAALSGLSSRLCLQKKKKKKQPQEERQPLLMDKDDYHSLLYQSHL
Method: The tyrosinase activity inhibitory effect can be known by comparing the value of the absorbance at 490 nm corrected by the protein concentration measured by adding the test substance at the time of melanin induction and the same operation with the value of the test section to which the test substance is not added.
B16 mouse melanoma cells were seeded in a 6 well plate (2.0×10^4 cells/well), and cultured for 24 hours in D-MEM medium to which 5% fetal bovine serum was added with respect to the medium (5% CO2, 37° C.). Thereafter, α-MSH (final concentration: 200 nM) was added, and the cells were cultured in a serum-free D-MEM medium for 24 hours to induce melanin. […] The protein concentration of the obtained sample was measured by the BCA method.
The same operation was performed except that melanin induction was not performed, and a reference sample was obtained. […] Fifty μL of a sample of each test section was placed in a 96 well plate (n=3), 50 μL of 0.8 mg/mL L-DOPA was added, the mixture was reacted at 37° C. for 1 hour, and then the absorbance at 490 nm was measured with a microplate reader. The absorbance was corrected by the protein concentration, and the relative value of each test section was calculated when the measured value of the reference sample was 100. […]

Structure (SMILES)	cell proliferation rate (survival rate of fibroblasts, MTT, relative value) (Normal human fibroblasts [1])	cell proliferation rate (survival rate of keratinocytes, MTT, relative value) [2]	amount of hyaluronic acid compared with test section of only aging induction (Normal human fibroblasts [3])	hyaluronic acid production capability compared with test sections that did not induce aging (Normal human fibroblasts [3])	amount of hyaluronic acid compared with test section of only aging induction ([4]; 24 h, ELISA, p<0.05, FIG. 4)	hyaluronic acid production capability compared with control group in which aging is not induced ([4]; no significant difference between the two groups, FIG. 4)	melanin production amount compared with the reference sample (absorbance at 405 nm) (B16 mouse melanoma cells)	concentration needed for melanin production suppressing effect compared with kojic acid (1 mM) and reduced glutathione (3 mM) (B16 mouse melanoma cells; α-MSH 200 nM)	tyrosinase activity compared with test section in which only melanin induction was performed [5]	tyrosinase activity compared with the reference sample (no melanin induction) [5]	melanin production suppressing effect compared with 0.02 mM test section of Sample 1 (B16 mouse melanoma cells; reduced glutathione final concentration 3 mM, α-MSH 200 nM)
N[C@@H](CCC(=O)N[C@@H](CSSSC[C@H](NC(=O)CC[C@H](N)C(=O)O)C(=O)NCC(=O)O)C(=O)NCC(=O)O)C(=O)O [Sample 1, oxidized glutathione trisulfide]	significant cell proliferation rate	significant cell proliferation rate	significantly higher	same hyaluronic acid production capability	significantly higher	same hyaluronic acid production capability	significantly low	exhibited a melanin production suppressing effect at a lower concentration	significantly lower	same degree of tyrosinase activity as the reference sample	
CC(=O)N[C@@H](CSSSC[C@H](NC(C)=O)C(=O)O)C(=O)O [Sample 2, oxidized NAC trisulfide]	significant cell proliferation rate		significantly higher	The same result was obtained			significantly low	melanin production can be suppressed at a lower concentration			
N[C@@H](CCC(=O)N[C@@H](CS)C(=O)NCC(=O)O)C(=O)O [reduced glutathione, reference compound]											same melanin production suppressing effect
